In patent publication US20020137929A1, “1 - (3-heterocyclylphenyl) isothiourea, -isourea, -guanidine and -amidine herbicidal agents” (Intellectual Property Department, BASF Aktiengesellschaft, priority 1998, published 2002):

Key:
[1] = tested on: IPOHE (Morningglory, Ivyleaf); assay: Preemergence herbicidal evaluation; assay type: in vivo, Ipomoea hederacea; conditions: rated 4-5 weeks after treatment
Method in brief: (§1)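 Herbicidal effect scored visually, 0-9, at 4 to 5 weeks against a control; compound applied preemergence by aqueous acetone spray to seeded soil at about 0.0156 to 0.500 kg/ha.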

[2] = tested on: SETVI (Foxtail, Green); assay: Preemergence herbicidal evaluation; assay type: in vivo, Setaria viridis; conditions: rated 4-5 weeks after treatment
Method in brief: as §1

[3] = tested on: CHEAL (Lambsquarters, Common); assay: Preemergence herbicidal evaluation; assay type: in vivo, Chenopodium album; conditions: rated 4-5 weeks after treatment
Method in brief: as §1

[4] = tested on: GLXMAW (Soybean, Williams); assay: Postemergence herbicidal evaluation; assay type: in vivo, Glycine max, (L.) Merr. cv Williams; conditions: postemergence
Method in brief: (§2)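 Two-week-old seedlings sprayed with compound in 50/50 acetone/water plus 0.5% TWEEN 20, at about 0.0156 to 0.500 kg/ha, nozzle at 40 psi. Kept in greenhouse; rated visually 4-5 weeks after treatment on a 0-9 scale versus control, repeat tests averaged.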

[5] = tested on: GALAP (Galium); assay: Postemergence herbicidal evaluation; assay type: in vivo, Galium aparine; conditions: postemergence
Method in brief: as §2

[6] = tested on: CHEAL (Lambsquarters, Common); assay: Postemergence herbicidal evaluation; assay type: in vivo, Chenopodium album; conditions: postemergence
Method in brief: as §2

[7] = tested on: ECHCG (Barnyardgrass); assay: Preemergence herbicidal evaluation; assay type: in vivo, Echinochloa crus-galli; conditions: rated 4-5 weeks after treatment
Method in brief: as §1

[8] = tested on: CYPIR (Rice Flatsedge); assay: Preemergence weed control under flooded paddy conditions; assay type: in vivo, Cyperus iria; conditions: rated 3-4 weeks after treatment
Method in brief: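 First, seeds or propagules go into the top 0.5 cm of silt loam; next, water is held 1.5 to 3 cm over the soil; then compound (50/50 acetone/water) is pipetted into it at about 0.0313 to 0.500 kg/ha; finally plants are rated visually 0-9 after three to four weeks.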

[9] = tested on: ZEAMX (Corn, Field); assay: Preemergence herbicidal evaluation; assay type: in vivo, Zea mays; conditions: rated 4-5 weeks after treatment
Method in brief: as §1

[10] = tested on: AMBEL (Ragweed, Common); assay: Preemergence herbicidal evaluation; assay type: in vivo, Ambrosia artemisifolia; conditions: rated 4-5 weeks after treatment
Method in brief: as §1

[11] = tested on: IPOHE (Morningglory, Ivyleaf); assay: Postemergence herbicidal evaluation; assay type: in vivo, Ipomoea hederacea; conditions: postemergence
Method in brief: as §2

[12] = tested on: ABUTH (Velvetleaf); assay: Preemergence herbicidal evaluation; assay type: in vivo, Abutilon theophrasti; conditions: rated 4-5 weeks after treatment
Method in brief: as §1

[13] = tested on: AMBEL (Ragweed, Common); assay: Postemergence herbicidal evaluation; assay type: in vivo, Ambrosia artemisifolia; conditions: postemergence
Method in brief: as §2

[14] = tested on: CASOB (Sicklepod); assay: Preemergence herbicidal evaluation; assay type: in vivo, Cassia obtusifolia; conditions: rated 4-5 weeks after treatment
Method in brief: as §1

[15] = tested on: SETVI (Foxtail, Green); assay: Postemergence herbicidal evaluation; assay type: in vivo, Setaria viridis; conditions: postemergence
Method in brief: as §2

[16] = tested on: ORYSAT (Rice, Tebonnet); assay: Postemergence herbicidal evaluation; assay type: in vivo, Oryza sativa, (L.) Tebonnet; conditions: postemergence
Method in brief: as §2

[17] = tested on: GALAP (Galium); assay: Preemergence herbicidal evaluation; assay type: in vivo, Galium aparine; conditions: rated 4-5 weeks after treatment
Method in brief: as §1

C=CCN1C(=O)C(CC(=O)NS(=O)(=O)C(C)C)SC1=Nc1cc(-n2c(=O)cc(C(F)(F)F)n(C)c2=O)c(F)cc1Cl (stereo not drawn) [Compound 118, 3-Allyl-2-{{2-chloro-5-[3,6-dihydro-3-methyl-2,6-dioxo-4-(trifluoromethyl)-1(2H)-pyrimidinyl]-4-fluorophenyl}imino}-N-(isopropylsulfonyl)-4-oxo-5-thiazolidineacetamide]
0.0: Preemergence herbicidal rating IPOHE ([1]; rate 0.0625 kg/ha) | Preemergence herbicidal rating SETVI ([2]; rate 0.0625 kg/ha) | Preemergence herbicidal rating SETVI ([2]; rate 0.1250 kg/ha) | herbicidal rating GALAP ([5]; rate 0.0158 kg/ha) | herbicidal rating GALAP ([5]; rate 0.0315 kg/ha) | herbicidal rating CHEAL ([6]; rate 0.0158 kg/ha) | herbicidal rating CHEAL ([6]; rate 0.0315 kg/ha) | Preemergence herbicidal rating ECHCG ([7]; rate 0.0625 kg/ha) | Preemergence herbicidal rating ECHCG ([7]; rate 0.1250 kg/ha) | Preemergence herbicidal rating ECHCG ([7]; rate 0.2500 kg/ha) | herbicidal effect rating, CYPIR ([8]; 0.0313 kg/ha) | herbicidal effect rating, CYPIR ([8]; 0.0625 kg/ha) | herbicidal effect rating, CYPIR ([8]; 0.1250 kg/ha) | herbicidal effect rating, CYPIR ([8]; 0.2500 kg/ha) | Preemergence herbicidal rating ZEAMX ([9]; rate 0.0625 kg/ha) | Preemergence herbicidal rating ZEAMX ([9]; rate 0.1250 kg/ha) | Preemergence herbicidal rating ZEAMX ([9]; rate 0.2500 kg/ha) | Preemergence herbicidal rating AMBEL ([10]; rate 0.0625 kg/ha) | Preemergence herbicidal rating AMBEL ([10]; rate 0.1250 kg/ha) | herbicidal rating AMBEL ([13]; rate 0.0158 kg/ha) | Preemergence herbicidal rating CASOB ([14]; rate 0.0625 kg/ha) | herbicidal rating SETVI ([15]; rate 0.0158 kg/ha) | herbicidal rating SETVI ([15]; rate 0.0315 kg/ha)
4.5: herbicidal rating GLXMAW ([4]; rate 0.0158 kg/ha)
6.0: Preemergence herbicidal rating IPOHE ([1]; rate 0.2500 kg/ha) | Preemergence herbicidal rating CHEAL ([3]; rate 0.0625 kg/ha) | herbicidal rating GLXMAW ([4]; rate 0.0630 kg/ha) | Preemergence herbicidal rating AMBEL ([10]; rate 0.2500 kg/ha) | Preemergence herbicidal rating GALAP ([17]; rate 0.1250 kg/ha)
7.0: herbicidal rating IPOHE ([11]; rate 0.0315 kg/ha) | Preemergence herbicidal rating ABUTH ([12]; rate 0.2500 kg/ha) | Preemergence herbicidal rating GALAP ([17]; rate 0.2500 kg/ha)
5.0: herbicidal rating GLXMAW ([4]; rate 0.0315 kg/ha) | herbicidal rating CHEAL ([6]; rate 0.0630 kg/ha)
2.0: Preemergence herbicidal rating SETVI ([2]; rate 0.2500 kg/ha) | herbicidal rating AMBEL ([13]; rate 0.0315 kg/ha) | herbicidal rating AMBEL ([13]; rate 0.0630 kg/ha) | herbicidal rating ORYSAT ([16]; rate 0.0158 kg/ha) | herbicidal rating ORYSAT ([16]; rate 0.0315 kg/ha) | herbicidal rating ORYSAT ([16]; rate 0.0630 kg/ha)
4.0: Preemergence herbicidal rating CASOB ([14]; rate 0.2500 kg/ha) | herbicidal rating SETVI ([15]; rate 0.0630 kg/ha)
1.0: Preemergence herbicidal rating IPOHE ([1]; rate 0.1250 kg/ha) | herbicidal rating GALAP ([5]; rate 0.0630 kg/ha) | herbicidal rating IPOHE ([11]; rate 0.0158 kg/ha) | Preemergence herbicidal rating GALAP ([17]; rate 0.0625 kg/ha)
9.0: Preemergence herbicidal rating CHEAL ([3]; rate 0.1250 kg/ha) | Preemergence herbicidal rating CHEAL ([3]; rate 0.2500 kg/ha) | herbicidal rating IPOHE ([11]; rate 0.0630 kg/ha) | Preemergence herbicidal rating ABUTH ([12]; rate 0.0625 kg/ha) | Preemergence herbicidal rating ABUTH ([12]; rate 0.1250 kg/ha)
